The values that follow come from ChEMBL document CHEMBL3638904, “Pyridine-2-derivatives as smoothened receptor modulators” (2015).

The structures appear in SMILES notation.

By IC50 is commonly meant the point on the concentration scale where inhibition reaches its midpoint.

The target in this assay is Protein smoothened (Homo sapiens, UniProt Q99835). Put plainly: Radioligand Competition Binding Assay: For the binding competition assay, 100 μL of Assay Buffer was added to all the wells of a 96 well GF/B filter plate (Millipore MultiScreen-HTS-FB cat# MSFBN6B50) for 10 minutes to pre-wet the filter prior to evacuation of the buffer (8 inches Hg for 8 seconds). To the pre-wet wells is added: 20 μL of Assay Buffer, 10 μL diluted test agent, 20 μL of a tritiated Smo antagonist (15 nM stock solution), and 50 μL of membrane preparation (40 μg total protein per well). The plates are sealed and mixed at room temperature for 5 min, incubated at room temperature for 2 hours, then washed 5 times with 100 μL/each of wash buffer and vacuum dried for 8 seconds at 8 inches Hg. The plate is then dried for one hour in a 60° C. oven prior to the addition of 45 μL of Microscint 20 (Packard, #6013621) to each well and incubation at RT for 30 minutes to 1 hour. The plate is counted in a TopCount scintillation counter (Perkin Elmer).
Sequence of Protein smoothened (Q99835 whole entry): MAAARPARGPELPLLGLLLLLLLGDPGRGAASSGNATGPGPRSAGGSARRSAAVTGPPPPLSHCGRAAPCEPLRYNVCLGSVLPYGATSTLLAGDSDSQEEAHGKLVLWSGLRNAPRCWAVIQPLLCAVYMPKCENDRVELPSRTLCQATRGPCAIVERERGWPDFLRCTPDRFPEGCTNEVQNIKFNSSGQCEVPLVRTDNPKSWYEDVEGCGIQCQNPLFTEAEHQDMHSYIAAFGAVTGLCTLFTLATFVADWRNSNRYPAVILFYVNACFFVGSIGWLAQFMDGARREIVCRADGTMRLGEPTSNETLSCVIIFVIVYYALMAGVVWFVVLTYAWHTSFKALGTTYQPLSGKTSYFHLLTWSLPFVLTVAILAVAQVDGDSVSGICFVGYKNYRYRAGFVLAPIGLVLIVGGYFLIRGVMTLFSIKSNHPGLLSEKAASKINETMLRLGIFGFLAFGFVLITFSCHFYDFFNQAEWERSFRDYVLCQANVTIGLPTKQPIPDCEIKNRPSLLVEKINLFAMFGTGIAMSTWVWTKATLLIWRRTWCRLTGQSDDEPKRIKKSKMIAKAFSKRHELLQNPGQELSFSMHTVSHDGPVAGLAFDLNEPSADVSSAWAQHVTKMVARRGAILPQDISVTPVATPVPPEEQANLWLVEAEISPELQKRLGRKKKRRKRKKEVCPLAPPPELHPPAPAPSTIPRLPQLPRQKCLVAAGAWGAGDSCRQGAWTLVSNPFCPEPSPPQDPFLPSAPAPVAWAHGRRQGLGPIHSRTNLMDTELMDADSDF
As to `Cc1cccnc1-c1cc(N2CCN(c3ncc(Br)cn3)CC2)ncc1Cl`, the IC50 was determined as 40.3 nM.

`Cc1cccnc1-c1cc(N2[C@@H]3CC[C@H]2CN(C(=O)CC(C)(C)O)C3)ncc1Cl` gave an IC50 of 92.2 nM.

Turning to `O=C(CCO)NC1CCN(c2ccc(Cl)c(-c3ccccn3)n2)CC1`, the concentration for half-maximal inhibition (IC50) came out at 110 nM.

Turning to `O=S(=O)(NC1CCN(c2ccc(Cl)c(-c3ccccn3)n2)CC1)C1CC1`, the half-inhibitory concentration (IC50) is 16.5 nM.

In the case of `Cc1ccc(-c2nc(N3CCN(C(=O)CCS(C)(=O)=O)CC3)ccc2Cl)nc1`, the IC50 came to 22.5 nM.

Turning to `Cc1cc(F)cnc1-c1cc(N2CCN(C(=O)CCS(C)(=O)=O)CC2)ncc1Cl`, the half-inhibitory concentration (IC50) turned out to be 7.11 nM.
